{"source": "patent US20190046600A1", "about": "“COMPOSITIONS AND USES THEREOF” (priority 2016, published 2019)", "key": {"human cancer cell lines": {"system": "human cancer cell lines", "conditions": "cited from earlier work; for bio-activity of cyclic peptide (active / inactive): PRGPRP warhead combined with non-amphiphilic backbone"}, "[1]": {"system": "NCI-H460 human non-small-cell lung cancer cells", "assay": "Cell survival with or without 2-deoxyglucose, alamarBlue", "format": "cell-based", "conditions": "combination with 3.125 mmol 2-DOG versus alone", "excerpt": "Since the compounds according to the invention appeared to be causing cell death by necrosis as a result of NAD/ATP depletion, it was hypothesised that their activity could be potentiated by administering the compounds with a glycolysis inhibitor. The cell killing ability of HILR-025 (SEQ ID NO: 15) and HILR-D-07 sodium salt (SEQ ID NO: 30) in the presence and absence of the glycolysis inhibitor 2-deoxyglucose (2-DOG) was therefore assayed.\nNCI-H460 human non-small-cell lung cancer cells were contacted with HILR-025 or HILR-D-07 alone or in combination with 3.125 mmol 2-DOG and cell survival was determined using AlamaBlue® cell viability reagent (Life Technologies, Inc.) in accordance with the manufacturer's instructions."}, "NCI-H460 cells [2]": {"system": "NCI-H460 cells", "conditions": "96 h", "description": "Methods measuring cell viability include the use of alamarBlue® cell viability reagent (Life Technologies, Inc.) (resazurin) with fluorescence detection.\n1) NCI-H460 cells were grown in Ham's F12 media supplemented with 10% FBS. 2) Cells were harvested and seeded into 96-well plates at 500 cells/well. 3) Compounds were made up from stock solutions and added directly to cells in doubling dilutions starting at 200 μM. Final DMSO concentration was 0.2%. 4) Cells were grown with compound for 96 hours at 37° C. 5% CO2 in a humidified atmosphere. 5) A resazurin dye composition (AlamarBlue® cell viability reagent (Life Technologies, Inc.)) 10% (v/v) was then added and incubated for a further 4 hours, and fluorescent product detected using the BMG FLUOstar plate reader. 6) Media only background readings were subtracted before data were analysed using a 4-parameter logistic equation in GraphPad Prism."}, "[3]": {"system": "Lactate Dehydrogenase A [LDHA]", "assay": "LDH activity assay on lysates of treated NCI-H460 cells (Abcam ab102526)", "format": "cell-based, human", "conditions": "NCI-H460 cells treated 24 h or 96 h, normalised to protein; read-out: IC50 for inhibiting the activity of LDH", "protocol": "An LDH activity assay was conducted on samples derived from NCI-H460 cells treated with 2 test compounds (HILR-025 and HILR-030) for either 24h or 96h. […] Therefore a BCA assay was conducted to estimate the total amount of protein present in each LDH assay lysate and this was used to normalise the enzyme activity data. As an indication of cell viability, an Alamar blue assay was also carried out at both timepoints, to serve as an additional point of reference.\n2) Cells were harvested and seeded into 96-well plates at either 500 cells/well (for the 96h timepoint) or 5000 cells/well for the 24h timepoint. […] 6) At the end of the assay (24 or 96h), Alamar blue 10% (v/v) was added to one set of plates, incubated for a further 4 hours, and fluorescent product detected using the BMG FLUOstar plate reader. […] 10) LDH activity was measured in the cleared lysates using an LDH activity kit (Abcam, ab102526). 11) After preparation of the LDH activity assay reactions, according to the manufacturer's instructions, absorbance at 450 nm was measured at the initial time to determine (A450)initial 12) Further absorbance readings were taken at 3 minute intervals for up to 15 minutes. […] 16) The LDH activity of each sample was determined by the following equation:\n[formula] […] Protein content in remaining cleared lysates was determined using a BCA assay (ThermoScientific). • b. Data were analysed using GraphPad Prism. […]"}, "[4]": {"system": "NCI H460 Human Non-small cell lung cancer", "assay": "Light microscopy of treated cell cultures", "format": "cell-based", "conditions": "versus DMSO control", "protocol": "To investigate further the mechanism of action of the anionic warhead, cultures of NCI H460 Human Non-small cell lung cancer were exposed to HILR-025 and HILR-D-07 and observed using light microscopy. A comparative cell culture was treated with DMSO to provide a negative control."}, "[5]": {"system": "NCI-H460 human non-small cell lung cancer cells", "conditions": "amphiphilic backbones of different length and composition; cited from earlier work"}, "NCI-H460 cells [6]": {"system": "NCI-H460 cells", "assay": "HILR-001 with or without 30 nM Olaparib on NCI-H460, alamarBlue and CellTiter-Glo time course", "format": "cell-based, human", "conditions": "HILR-001 as single agent, particularly evident at later time points", "protocol": "At each time point cell viability was measured by two assay readouts, alamarBlue® and CellTiter-Glo. Conversion of alamarBlue® to a fluorescent product serves as a readout of the metabolic activity of cells, whereas CellTiter-Glo is based on quantification of the ATP present.\n2) Cells were harvested and seeded into 96-well plates at 500 cells/well. 3) HILR-001 was made up from a 10 mM stock solution and added directly to cells in doubling dilutions starting at 200 μM. […] The total final DMSO concentration was 0.25%. 4) Cells were grown with compound for 24, 48, 72 or 96 hours at 37° C. 5% CO2 in a humidified atmosphere. 5) AlamarBlue® 10% (v/v) was then added and incubated for a further 4 hours, and fluorescent product detected using the BMG FLUOstar plate reader. 6) On duplicate plates the media was removed from the cells, CellTiter-Glo was diluted in PBS (1:10) and 100 μl added to the cells. 7) Plates were mixed on an orbital shaker for 2 minutes and incubated for a further 10 minutes at room temperature. Luminescent signal was then measured using the BMG FLUOstar plate reader."}}, "note": "Square brackets hold non-standard residues; d marks the D form. Ends that are not written are not given here. Peptide text beside a SMILES is read from it. Phe(4-guanidino) = N=C(N)Nc1ccc(C[C@H](N)C(=O)O)cc1; Abu(4-SO3H) = N[C@@H](CCS(=O)(=O)O)C(=O)O", "data": [{"molecule": "Cyc-[GGGGGGPRGPRPGGGGGG] [SEQ ID NO: 7] (cyclic; cyclic peptide; (1)..(18) cyclic peptide)", "values": [{"measurement": "bio-activity of cyclic peptide (active / inactive)", "setting": "human cancer cell lines", "value": "SEQ ID NO: 7: Cyc-[GGGGGGPRGPRPGGGGGG]INACTIVE"}]}, {"molecule": "CC(C)[C@@H]1NC(=O)[C@@H]2CCCN2C(=O)[C@H](CCCNC(=N)N)NC(=O)[C@@H]2CCCN2C(=O)CNC(=O)[C@H](CCCNC(=N)N)NC(=O)[C@@H]2CCCN2C(=O)[C@H](Cc2c[nH]c3ccccc23)NC(=O)[C@H](Cc2c[nH]c3ccccc23)NC(=O)[C@H](CCCNC(=N)N)NC(=O)[C@H](CCCNC(=N)N)NC(=O)[C@H](Cc2c[nH]c3ccccc23)NC(=O)[C@H](Cc2c[nH]c3ccccc23)NC(=O)[C@H](CCCNC(=N)N)NC(=O)[C@H](CCCNC(=N)N)NC(=O)[C@H](Cc2c[nH]c3ccccc23)NC(=O)[C@H](Cc2c[nH]c3ccccc23)NC1=O", "note": "[HILR-025] (cyclo(PRGPRPVWWRRWWRRWW))", "values": [{"measurement": "cell killing ability with 2-DOG", "setting": "[1]", "value": "enhanced by co-administration with 2-DOG"}, {"measurement": "IC50", "setting": "NCI-H460 cells [2]", "value": 15, "unit": "µM"}, {"measurement": "IC50", "setting": "[3]", "value": 16, "unit": "µM"}, {"measurement": "cell morphology", "setting": "[4]", "value": "Ring-shaped morphology"}]}, {"molecule": "Cyc-[PRGPRPvalklalkalal] [THR79]", "values": [{"measurement": "selective killing of human cancer cell lines", "setting": "human cancer cell lines", "value": "selectively killed a wide range of human cancer cell lines"}]}, {"molecule": "Cyc-[AAAGGGPRGPRPGGGAAA] (cyclic; Cyclic peptide; (1)..(18) cyclic peptide) [SEQ ID NO: 6]", "values": [{"measurement": "bio-activity of cyclic peptide (active / inactive)", "setting": "human cancer cell lines", "value": "SEQ ID NO: 6: Cyc-[AAAGGGPRGPRPGGGAAA]INACTIVE"}]}, {"molecule": "Cyc-[PRGPRPVKLALKLALKFP] (cyclic; cyclic peptide; (1)..(18) cyclic peptide) [THR53]", "values": [{"measurement": "killing NCI-H460 cells (active / inactive)", "setting": "[5]", "value": "ACTIVE"}, {"measurement": "selective killing of human cancer cell lines", "setting": "human cancer cell lines", "value": "selectively killed a wide range of human cancer cell lines"}]}, {"molecule": "-Pro-Glu-Gly-Pro-Glu-Pro- (PEGPEP; not fully specified; printed as -Pro-Glu-Gly-Pro-Glu-Pro-) [anionic hexapeptide, comparative peptide]", "values": [{"measurement": "activity of anionic hexapeptide", "setting": "human cancer cell lines; linear hexapeptide, earlier study", "value": "inactive"}]}, {"molecule": "Cyc-[GGGGGGPRGPRPGGGGGG] [SEQ ID NO: 8] (cyclic; cyclic peptide; (1)..(18) cyclic peptide)", "values": [{"measurement": "bio-activity of cyclic peptide (active / inactive)", "setting": "human cancer cell lines", "value": "SEQ ID NO: 8: Cyc-[GGGGGGPRGPRPGGGGGG]INACTIVE"}]}, {"molecule": "Cyc-[PRGPRPVKLALKLALKLAL] (cyclic; cyclic peptide; (1)..(19) cyclic peptide) [THR52]", "values": [{"measurement": "killing NCI-H460 cells (active / inactive)", "setting": "[5]", "value": "INACTIVE"}]}, {"molecule": "CC(C)[C@@H]1NC(=O)[C@@H]2CCCN2C(=O)[C@H](CCC(=O)O)NC(=O)[C@@H]2CCCN2C(=O)CNC(=O)[C@H](CCC(=O)O)NC(=O)[C@@H]2CCCN2C(=O)[C@H](Cc2c[nH]c3ccccc23)NC(=O)[C@H](Cc2c[nH]c3ccccc23)NC(=O)[C@H](CCCNC(=N)N)NC(=O)[C@H](CCCNC(=N)N)NC(=O)[C@H](Cc2c[nH]c3ccccc23)NC(=O)[C@H](Cc2c[nH]c3ccccc23)NC(=O)[C@H](CCCNC(=N)N)NC(=O)[C@H](CCCNC(=N)N)NC(=O)[C@H](Cc2c[nH]c3ccccc23)NC(=O)[C@H](Cc2c[nH]c3ccccc23)NC1=O", "note": "[HILR-D-02] (cyclo(PEGPEPVWWRRWWRRWW))", "values": [{"measurement": "IC50", "setting": "NCI-H460 cells [2]", "value": 38, "unit": "µM"}]}, {"molecule": "cyclo-[Pro-Hca-Gly-Pro-Hca-Pro-Val-Trp-Trp-Gpa-Gpa-Trp-Trp-Gpa-Gpa-Trp-Trp] (cyclo(P[Abu(4-SO3H)]GP[Abu(4-SO3H)]PVWW[Phe(4-guanidino)][Phe(4-guanidino)]WW[Phe(4-guanidino)][Phe(4-guanidino)]WW); SMILES CC(C)[C@@H]1NC(=O)[C@@H]2CCCN2C(=O)[C@H](CCS(=O)(=O)O)NC(=O)[C@@H]2CCCN2C(=O)CNC(=O)[C@H](CCS(=O)(=O)O)NC(=O)[C@@H]2CCCN2C(=O)[C@H](Cc2c[nH]c3ccccc23)NC(=O)[C@H](Cc2c[nH]c3ccccc23)NC(=O)[C@H](Cc2ccc(NC(=N)N)cc2)NC(=O)[C@H](Cc2ccc(NC(=N)N)cc2)NC(=O)[C@H](Cc2c[nH]c3ccccc23)NC(=O)[C@H](Cc2c[nH]c3ccccc23)NC(=O)[C@H](Cc2ccc(NC(=N)N)cc2)NC(=O)[C@H](Cc2ccc(NC(=N)N)cc2)NC(=O)[C@H](Cc2c[nH]c3ccccc23)NC(=O)[C@H](Cc2c[nH]c3ccccc23)NC1=O) [HILR-D-07]", "values": [{"measurement": "cell killing ability with 2-DOG", "setting": "[1]", "value": "enhanced by co-administration with 2-DOG"}, {"measurement": "cell morphology", "setting": "[4]", "value": "Ring-shaped morphology"}]}, {"molecule": "Cyc-[AAGPGGPRGPRPGGPGAA] (cyclic; cyclic peptide; (1)..(18) cyclic peptide) [SEQ ID NO: 9]", "values": [{"measurement": "bio-activity of cyclic peptide (active / inactive)", "setting": "human cancer cell lines", "value": "SEQ ID NO: 9: Cyc-[AAGPGGPRGPRPGGPGAA]INACTIVE"}]}, {"molecule": "CC(C)[C@@H]1NC(=O)[C@@H]2CCCN2C(=O)[C@H](CCS(=O)(=O)O)NC(=O)[C@@H]2CCCN2C(=O)CNC(=O)[C@H](CCS(=O)(=O)O)NC(=O)[C@@H]2CCCN2C(=O)[C@H](Cc2c[nH]c3ccccc23)NC(=O)[C@H](Cc2c[nH]c3ccccc23)NC(=O)[C@H](CCCNC(=N)N)NC(=O)[C@H](CCCNC(=N)N)NC(=O)[C@H](Cc2c[nH]c3ccccc23)NC(=O)[C@H](Cc2c[nH]c3ccccc23)NC(=O)[C@H](CCCNC(=N)N)NC(=O)[C@H](CCCNC(=N)N)NC(=O)[C@H](Cc2c[nH]c3ccccc23)NC(=O)[C@H](Cc2c[nH]c3ccccc23)NC1=O", "note": "[HILR-D-06] (cyclo(P[Abu(4-SO3H)]GP[Abu(4-SO3H)]PVWWRRWWRRWW))", "values": [{"measurement": "IC50", "setting": "NCI-H460 cells [2]", "value": 25, "unit": "µM"}]}, {"molecule": "CC(C)C[C@@H]1NC(=O)[C@H](C)NC(=O)[C@H](C(C)C)NC(=O)[C@@H]2CCCN2C(=O)[C@H](CCCNC(=N)N)NC(=O)[C@@H]2CCCN2C(=O)CNC(=O)[C@H](CCCNC(=N)N)NC(=O)[C@@H]2CCCN2C(=O)[C@H](CC(C)C)NC(=O)[C@H](C)NC(=O)[C@H](CC(C)C)NC(=O)[C@H](CCCCN)NC(=O)[C@H](CC(C)C)NC(=O)[C@H](C)NC(=O)[C@H](CC(C)C)NC(=O)[C@H](CCCCN)NC1=O", "note": "[HILR-001] (cyclo(PRGPRPVALKLALKLAL))", "values": [{"measurement": "IC50", "setting": "NCI-H460 cells [2]", "value": 98, "unit": "µM"}, {"measurement": "killing NCI-H460 cells (active / inactive)", "setting": "[5]", "value": "ACTIVE"}, {"measurement": "metabolic activity (alamarBlue)", "setting": "NCI-H460 cells [6]", "value": "dose dependent decrease"}, {"measurement": "selective killing of human cancer cell lines", "setting": "human cancer cell lines", "value": "selectively killed a wide range of human cancer cell lines"}]}]}
